Laboratory results as given in patent US20190175551A1, “MEDICINE FOR TREATING RENAL DISEASE” (Daiichi Sankyo Company, Limited, priority 2016, published 2019).

Experiments:
[1] = test system: DOCA/sodium chloride-loaded hypertension model; assay: Ameliorative effect on a renal disorder in the DOCA/sodium chloride-loaded hypertension model (kidney histopathology); type: in vivo, male WKY rats; settings: for Glomerulosclerosis score / Tubular disorder score, Cortical side / Tubular disorder score, Medullary side: 15 weeks old, score 0 to 4, mean±standard error, n=6
Description: Deoxycorticosterone acetate (DOCA)/sodium chloride-loaded hypertension model was prepared by the following procedure. 6 Week-old male WKY rats (WKY/Izm, SPF grade, produced by Funabashi Farm Co., Ltd.) were subjected to unilateral nephrectomy, diet containing 4% sodium chloride (4% NaCl-containing FR-2, manufactured by Funabashi Farm Co., Ltd.) was given from 7 weeks old by free feeding, and DOCA was administered subcutaneously once a week. DOCA was suspended in a 0.5% carboxymethylcellulose solution (20 mg/mL) and administered in an amount corresponding to 1 mL/kg. The group to which DOCA was not administered was designated as DOCA non-administration group and the group to which DOCA was administered was designated as DOCA administration group.
At 11 weeks old, some of the animals in the DOCA non-administration group were dissected and the other animals in the DOCA non-administration group were designated as normal group (Group 1). At the same time, some of the animals in the DOCA administration group were also dissected, and the others of the DOCA administration group were divided into the following groups (Groups 2 to 4).
Group 1: normal group, n=6 animals
Group 2; control group, n=6 animals
Group 3; compound (Ia) administration group [compound (Ia) 3 mg/kg], n=6 animals
Group 4: DOCA administration interruption+compound (Ia) administration group [compound (Ia) 3 mg/kg], n=6 animals
The dosing schedule of test drugs for each group after 11 weeks is as follows.
To Group 1, oral administration of a 0.5% methylcellulose solution was continued for 4 weeks. To Group 2, oral administration of 0.5% methylcellulose solution and subcutaneous administration (once a week) of DOCA were continued for 4 weeks. To Group 3, oral administration of compound (Ia) suspended in 0.5% methylcellulose solution (2 mL/kg) and subcutaneous administration (once a week) of DOCA were continued for 4 weeks.
To Group 4, only oral administration of compound (Ia) suspended in 0.5% methylcellulose solution (2 mL/kg) was continued for 4 weeks.
At the end of 4 weeks of administration of the test drug or the like (at the age of 15 weeks old), all animals were dissected.
At 7, 11, 13 and 15 weeks old, 24-hour urine collections were conducted using metabolic cages (2100-R, Watanabe Isolator Systems Co., Ltd.). Daily urinary protein excretion was calculated from the urine protein concentration (measured by BiOLiS 24i premium [Tokyo Boeki Medisys Inc.]) and urine volume.
At the time of dissection at 11 and 15 weeks old, the kidneys were isolated and weighed, and the kidney weight per body weight was calculated.
Furthermore, histopathological sections were prepared from a part of the isolated kidneys, and histopathological evaluation (scoring of glomerulosclerosis and tubular disorder) was conducted. For glomerulosclerosis, 30 glomeruli were selected at random for each sample, and the degree of glomerulosclerosis of each sample was quantified on the basis of 5 stages (0 to 4) to determine an average value of 30 values, which was used as a score of the sample (Uehara Y, et al., Hypertens. Res. 1992; 15, pp 17-26). For tubular disorder, for each of the cortical and medullary sides, 10 fields of view were selected for each sample, the degree of tubular disorder was quantified on the basis of 5 stages (0 to 4) to determine the average value of values for each 10 fields of view, which was used as a score of the sample (Uehara Y, et al., Hypertens. Res. 1992; 15, pp 17-26). Results are shown in Table 3 (each numerical value in the table represents the mean±standard error).

[2] = test system: patients with type 2 diabetes mellitus having albumin urine; assay: Phase II randomized, placebo controlled, double-blind clinical study of compound (Ia) (Example 3); type: in vivo, human; settings: for Reduction rate of UACR (geometric mean) from baseline at the end of dosing / Remission rate of UACR: 12 weeks; for Remission rate of UACR: UACR <30 mg/g Cr at 11 and 12 weeks and decreased by 30% or more
Description: A clinical study targeted to patients with type 2 diabetes mellitus having albumin urine was conducted to evaluate the efficacy and safety of the like of compound
(Ia). This study is a Phase II randomized, placebo controlled, double-blind comparison study. Each of the patients was subjected to a washout period of 4 to 12 weeks followed by treatment comprising administrating placebo or compound (Ia) (0.625 mg, 1.25 mg, 2.5 mg, 5 mg) once a day over a treatment period of 12 weeks.
365 Patients in Japan who met the following criteria entered this study, and an efficacy and safety analysis set included 358 cases.
1. The patient is with type 2 diabetes mellitus; 2. The patient is 20 years old or more at the time of consent; 3. Urine albumin/creatinine ratio (UACR) is 45 mg/g Cr or more and less than 300 mg/g Cr; 4. Estimated glomerular filtration rate calculated with serum creatinine (eGFRcreat) is 30 mL/min/1.73 m^2 or more; and 5. The patient has been subjected to treatment with an angiotensin-converting enzyme inhibitor or an angiotensin II receptor antagonist (and optionally a calcium antagonist) since at least 3 months before the start of treatment.
The patient was followed up for approximately 6 weeks after the end of dosing, and evaluated for change in UACR from baseline, remission rate of UACR and numerical value of eGFR as well as safety.
Remission rate of UACR (%)=(number of subjects in remission÷number of all subjects to be analyzed)×100

[3] = Group 3: 3 mg/kg oral for 4 weeks with continued DOCA
[4] = Group 4: DOCA administration interruption + 3 mg/kg oral for 4 weeks

## Cc1c(C(=O)Nc2ccc(S(C)(=O)=O)cc2)cn(CCO)c1-c1ccccc1C(F)(F)F (atropisomer, axis not shown) [compound (Ia), (S)-1-(2-hydroxyethyl)-4-methyl-N-[4-(methylsulfonyl)phenyl]-5-[2-(trifluoromethyl)phenyl]-1H-pyrrole-3-carboxamide]
[1]; 3 mg/kg oral for 4 weeks, disease model animals
  Effect on renal disorders (proteinuria, renal hypertrophy, glomerulosclerosis and tubular disorder): excellent ameliorative effect
[1]; [3]
  Glomerulosclerosis score: 0.29 ± 0.05
  Tubular disorder score, Cortical side: 1.02 ± 0.07
  Tubular disorder score, Medullary side: 1.73 ± 0.04
[1]; [4]
  Effect on renal disorders versus normal group: ameliorated almost to the normal group level
  Glomerulosclerosis score: 0.20 ± 0.04
  Tubular disorder score, Cortical side: 0.67 ± 0.06
  Tubular disorder score, Medullary side: 1.42 ± 0.11
[2]; 0.625 mg once a day
  Reduction rate of UACR (geometric mean) from baseline at the end of dosing: 21%
  Remission rate of UACR: 7.5%
[2]; 1.25 mg once a day
  Reduction rate of UACR (geometric mean) from baseline at the end of dosing: 37%
  Remission rate of UACR: 12.3%
[2]; 2.5 mg once a day
  Reduction rate of UACR (geometric mean) from baseline at the end of dosing: 50%
  Remission rate of UACR: 21.2%
[2]; 5 mg once a day
  Reduction rate of UACR (geometric mean) from baseline at the end of dosing: 56%
  Remission rate of UACR: 21.1%
[2]; patients without sufficient effect on ACE inhibitor or angiotensin II receptor antagonist (optionally calcium antagonist)
  Therapeutic effect (UACR reducing effect and increase in remission rate): excellent therapeutic effect
